For series [1] the following is noted: water and a variety of pharmaceutically useful buffers and solvents; cited from earlier work.
Another series deals with Runx2. Kind of series: Runx2 expression by SDS-PAGE and Western blotting. Particulars: day 21. The series is classed as cell-based. As to the method:
FIG. 4. […] It is thought that Runx2 serves as a gatekeeper to promote osteogenesis, thus it is one of the most important marker for osteogenesis. In the control panel, consistent with the reported data in literature, Runx2 was detected in the presence of osteogenic medium but remain undetectable level without the osteogenic medium. […] The blot of tubulin serves as loading control for each sample loading.
Differentiation: Osteogenic protein markers were analyzed SDS-PAGE and Western Blotting. Protein samples were resolved by SDS-PAGE on precast 12.5% […] gels (Bio-Rad, Hercules, Calif.) and transferred electrophoretically onto polyvinylidene difluoride membranes according to the manufacturer's instructions (Bio-Rad, Hercules, Calif.). Membranes were blocked with skim milk and then probed with respective antibodies. […]
MC3T3E1 cells expressed classic markers for the osteoblastic phenotype in the presence of 6-Bnz-cAMP in the absence of osteogenic medium in samples collected at day 21. The level of Runx2, a bone-specific transcription factor which increases bone formation through the stimulation of bone-marker gene transcription in osteoblasts, was detected by immunoblotting (FIG. 4). In the control panel, Runx2 was detected in the presence of osteogenic medium but remain undetectable level without the osteogenic medium. […]
A general note: A western blot detects proteins with antibodies after separation by electrophoresis.

A further series deals with MC3T3E1 cells. Put plainly: Cell proliferation, PicoGreen dsDNA assay. The series is classed as cell-based. Particulars: 100 μM in regular growth medium. As to the method: FIG. 3. 6-Bnz-cAMP promotes cell growth in the earliest day of cell culture (Day 1) and maintains the cell proliferation rate at Day 7 and Day 14. Error bars represent SD.
MC3T3E1 subtype 4 cell line was purchased from the […] (ATCC). The cells were grown to confluence, then seeded onto PLAGA discs at a density of 50,000 cells/scaffold. The cells were cultured on the discs in vitro in a 37° C. and 5% CO2 environment, using MEM alpha cell culture medium +10% Fetal Bovine Serum as a nutrient source. At specific time points, cultured cells were collected for various assays i.e., cell adhesion assays, cell proliferation assays, and cell differentiation studies.
Proliferation: Cell proliferation was tested using a PicoGreen dsDNA assay kit (Molecular Probes, Eugene, Oreg.) The procedure of the PicoGreen dsDNA assay was performed according to the manufacturer's instructions. Briefly, 5×10^4 cells ml^−1 were seeded in a well of a tissue culture plate. 100 μM of 6-Bnz-cAMP was added to the regular growth medium during cell seeding. The regular growth medium and 6-Bnz-cAMP (100 μM) were replaced every 3 to 4 days.

The subject of another series is Protein Kinase A (PKA). Particulars: compared to non-specific cAMP analogue db-cAMP; cited from earlier work.
For series [2], the system named is rat mesenchymal stem cells. Kind of series: Quantitative calcium levels in mesenchymal stem cells. The series is classed as cell-based. Particulars: vs control untreated cells and cells supplemented with BMP-2 peptide. As to the method: FIG. 9. Quantitative calcium levels determined in untreated (control) rat mesenchymal stem cells and cells treated with BMP-2 or 6-Bnz-cAMP. Keys: D-BMP-2 peptide; E-6-Bnz-cAMP; F-Control.
Cell adhesion, proliferation, and differentiation studies: Rabbit MSCs are plated onto PLAGA matrices at a plating density of 1×10^4 cells/cm^2 and cultured in standard basal medium. Four experimental groups are tested: (1) untreated cells, (2) 6-Bnz-cAMP treated cells, (3) BMP-2 treated cells, and (4) 6-Bnz-cAMP and BMP-2 treated cells. […] Initial cell adhesion is determined at 1 h, 3 h, 12 h, and 24 h. Cell proliferation and cell differentiation are determined at 1, 7, 14, and 21 days. Calcium deposition and ALP activity is also measured at days 3, 7, 14, and 21 in untreated cells compared to cells treated with BMP-2 or 6-Bnz-cAMP (FIGS. 9 and 10). […] For the cell adhesion assay, attached cells are quantified by crystal violet stain, a method routinely used to measure the initial cell adhesion. Cell proliferation is measured using a commercially available proliferation assay kit, MTS (Promega). For alkaline phosphatase (ALP) activity, the early markers of osteoblast differentiation are determined with a commercially availia ALP assay kit (Bio-rad). […] PCR amplification will be carried out and the resulting products will be analyzed by DNA gel electrophoresis and sequencing. […]

For another series, the system named is MC3T3-E1 cells. Put plainly: ALP activity assay. The series is classed as cell-based. Particulars: 100 μM. As to the method: FIG. 5. 6-Bnz-cAMP increases ALP activities at day 7 and 14. […] To facilitate the comparison of different experimental settings, the ALP activity of the cells cultured in the regular growth medium at Day 7 was set to one relative unit.
MC3T3-E1 cells were grown in mineralization media. 6-Bnz-cAMP was added to the culture medium to a final concentration of 100 μM for experiments; mineralization media only was used for positive controls. Osteoblast-associated markers were quantitated at days 7 and 14. Markers include increased alkaline phosphatas (ALP) activity (FIG. 5) and calcium precipitation in MC3T3-E1 cells (FIG. 6). 6-Bnz-cAMP toxicity was assessed at days 7, 14, and 21 in cells treated with 100 micromolar 6-Bnz-cAMP compared to untreated cells. Trypan blue staining was used to visualize cells (FIG. 7).
ALP activities were measured using ALP assay kit according to the manufacturer's instructions (Bio-Rad, Hercules, Calif.). Briefly, at day 7 and 14, cells were collected and washed 4 times with PBS prior to the ALP activity assay. Cells were then lysed with 0.1% TX-100. Cell lysates were collected and mixed with the ALP substrate solution for 1 h at 37° C. incubation. The colorimetric change due to the presence of ALP activity was measured by a spectrophotometric plate reader at 405 nm. The absorbance values were then normalized to cellular DNA.

`O=C(Nc1ncnc2c1ncn2C1O[C@@H]2COP(=O)([O-])O[C@H]2[C@H]1O)c1ccccc1.[Na+]` (stereo partly drawn) [6-Bnz-cAMP, N^6-Benzoyladenosine-3′,5′-cyclic monophosphate]: in series [1], the solubility result is on record as “soluble in water”. Moreover, the “expression of Runx2” value is given as “induces the expression of Runx2” in the series with Runx2 (100 μM, absence of osteogenic medium) and “further enhanced the expression of Runx2” in the series on Runx2 (osteogenic medium together with 6-Bnz-cAMP, vs 6-Bnz-cAMP alone). In addition, in the series with MC3T3E1 cells (Days 7, 14 and 21), the proliferation rate result is reported as “maintained”. The cell growth entry in the series with MC3T3E1 cells (first day of culturing (Day 1)) is given as “promote cell growth”. Besides, in the series on Protein Kinase A (PKA), the “activation of the Protein Kinase A (PKA) pathway” value is given as “selectively activates”. Moreover, the calcium deposition result in series [2] is given as “further enhanced calcium deposition”. For the same compound, the figures for the ALP activity result in the series with MC3T3-E1 cells (day 7) and in the series with MC3T3-E1 cells (day 14) were “induced” and “further increased”, respectively.
